Data published in ChEMBL document CHEMBL1136837, “Unified QSAR approach to antimicrobials. 4. Multi-target QSAR modeling and comparative multi-distance study of the giant components of antiviral drug-drug complex networks” (Bioorg Med Chem, 2009).

Legend:
Human rhinovirus sp. = test: Antiviral activity against Human rhinovirus; format: functional, organism-based
[1] = system: Human immunodeficiency virus 1; test: Antiviral activity against HIV1; format: functional, organism-based
[2] = system: Human immunodeficiency virus 2; test: Antiviral activity against HIV2; format: functional, organism-based
Human alphaherpesvirus 2 = test: Antiviral activity against Herpes simplex virus 2; format: functional, organism-based
Human alphaherpesvirus 1 = test: Antiviral activity against Herpes simplex virus 1; format: functional, organism-based
Vaccinia virus = test: Antiviral activity against Vaccinia virus; format: functional, organism-based, Orthopoxvirus vaccinia; settings: Orthopoxvirus vaccinia
Cowpox virus = test: Antiviral activity against Cowpox virus; format: functional, organism-based
Human betaherpesvirus 5 = test: Antiviral activity against Human cytomegalovirus; format: functional, organism-based; settings: Human betaherpesvirus 5
Human alphaherpesvirus 3 = test: Antiviral activity against Varicella zoster virus; format: functional, organism-based
Human papillomavirus = test: Antiviral activity against Human papillomavirus; format: functional, organism-based

CCOC(=O)/C=C/[C@H](C[C@@H]1CCNC1=O)NC(=O)c1cc(-c2ccccc2)oc1C
IC50 (Human rhinovirus sp.): 1940 nM

CCOC(=O)/C=C/[C@H](C[C@@H]1CCNC1=O)NC(=O)[C@H](Cc1ccccc1)n1cccc(NC(=O)OCc2ccccc2)c1=O
IC50 (Human rhinovirus sp.): 3 nM

Cc1c(N)nc(N)n(CCOCP(=O)(O)O)c1=O
IC50 [1]: 0.3 nM | IC50 [2]: 0.3 nM | IC50 (Human alphaherpesvirus 2; Human alphaherpesvirus 2): 0.12 nM | IC50 (Human alphaherpesvirus 1; Human alphaherpesvirus 1): 1.2 nM | IC50 (Vaccinia virus): 1.2 nM

Cc1cc(OCCOCP(=O)(O)O)nc(N)n1
IC50 [2]: 0.433 nM

Cc1cn([C@H]2C=C[C@@H](CO)O2)c(=O)[nH]c1=O [STAVUDINE]
IC50 (Vaccinia virus): 446000 nM | IC50 (Cowpox virus): 446000 nM

CCCCCCCCCCCCCCCCOCCCOP(=O)(O)CO[C@H](CO)Cn1ccc(N)nc1=O [BRINCIDOFOVIR]
IC50 (Cowpox virus): 600 nM

Nc1nc(N)n(CCOCP(=O)(O)O)c(=O)c1CC(=O)O
IC50 [1]: 0.3 nM | IC50 [2]: 0.3 nM | IC50 (Human alphaherpesvirus 2; Human alphaherpesvirus 2): 1.2 nM | IC50 (Human alphaherpesvirus 1; Human alphaherpesvirus 1): 1.2 nM | IC50 (Vaccinia virus): 1.2 nM | IC50 (Human betaherpesvirus 5): 0.15 nM | IC50 (Human alphaherpesvirus 3): 0.15 nM

Nc1nc(N)n(CCOCP(=O)(O)O)c(=O)c1-c1ccccc1
IC50 [1]: 0.3 nM | IC50 [2]: 0.3 nM | IC50 (Human alphaherpesvirus 2; Human alphaherpesvirus 2): 1.2 nM | IC50 (Human alphaherpesvirus 1; Human alphaherpesvirus 1): 1.2 nM | IC50 (Vaccinia virus): 1.2 nM | IC50 (Human betaherpesvirus 5): 0.15 nM | IC50 (Human alphaherpesvirus 3): 0.15 nM

N#CCc1c(N)nc(N)nc1OCCOCP(=O)(O)O
IC50 [1]: 0.3 nM | IC50 [2]: 0.3 nM | IC50 (Human alphaherpesvirus 2; Human alphaherpesvirus 2): 1.2 nM | IC50 (Human alphaherpesvirus 1; Human alphaherpesvirus 1): 1.2 nM | IC50 (Vaccinia virus): 1.2 nM | IC50 (Human betaherpesvirus 5): 0.15 nM | IC50 (Human alphaherpesvirus 3): 0.11 nM

CCOC(=O)/C=C/[C@H](CCC(N)=O)NC(=O)Cn1cccc(NC(=O)OCc2ccccc2)c1=O
IC50 (Human rhinovirus sp.): 10000 nM

Nc1nc(N)n(CCOCP(=O)(O)O)c(=O)c1C1CC1
IC50 [1]: 0.3 nM | IC50 [2]: 0.3 nM | IC50 (Human alphaherpesvirus 2; Human alphaherpesvirus 2): 0.12 nM | IC50 (Human alphaherpesvirus 1; Human alphaherpesvirus 1): 1.2 nM | IC50 (Vaccinia virus): 1.2 nM | IC50 (Human betaherpesvirus 5): 0.15 nM

CCOC(=O)/C=C/[C@H](C[C@@H]1CCNC1=O)NC(=O)C1=Cc2cc(Cl)ccc2OC1
IC50 (Human rhinovirus sp.): 160 nM

Cc1cn([C@H]2C[C@H](N=[N+]=[N-])[C@@H](CO)O2)c(=O)[nH]c1=O [ZIDOVUDINE]
IC50 [1]: 5 nM | IC50 [2]: 5 nM

CCOC(=O)/C=C/[C@H](C[C@@H]1CCNC1=O)NC(=O)C1=Cc2cc(Br)ccc2OC1
IC50 (Human rhinovirus sp.): 180 nM

CN(C)c1cc(=O)n(CCOCP(=O)(O)O)c(N)n1
IC50 [2]: 0.342 nM

CCOC(=O)/C=C/[C@H](CCC(N)=O)NC(=O)[C@H](Cc1ccccc1)n1cccc(NC(=O)c2cc(Cl)on2)c1=O
IC50 (Human rhinovirus sp.): 240 nM

CCOC(=O)/C=C/[C@H](CCC(N)=O)NC(=O)[C@H](Cc1ccccc1)n1cccc(NC(=O)c2cc(C)on2)c1=O
IC50 (Human rhinovirus sp.): 16 nM

CCCCOC(=O)C[C@H](C)NP(=O)(COCCn1cnc2c(N)ncnc21)N[C@@H](C)C(=O)OCCCC (some centres not stated)
IC50 (Vaccinia virus): 4400 nM | IC50 (Cowpox virus): 10000 nM

Nc1nc(N)c(CC(=O)O)c(OCCOCP(=O)(O)O)n1
IC50 [1]: 0.3 nM | IC50 [2]: 0.3 nM | IC50 (Human alphaherpesvirus 2; Human alphaherpesvirus 2): 1.2 nM | IC50 (Human alphaherpesvirus 1; Human alphaherpesvirus 1): 1.2 nM | IC50 (Vaccinia virus): 1.2 nM | IC50 (Human betaherpesvirus 5): 0.15 nM | IC50 (Human alphaherpesvirus 3): 0.15 nM

COc1c(C)c2c(c(O)c1C/C=C(\C)CCC(=O)O)C(=O)OC2 [MYCOPHENOLIC ACID]
IC50 (Cowpox virus): 3200 nM

Nc1nc(N)c(C2CC2)c(OCCOCP(=O)(O)O)n1
IC50 [1]: 0.3 nM | IC50 [2]: 0.3 nM | IC50 (Human alphaherpesvirus 2; Human alphaherpesvirus 2): 1.2 nM | IC50 (Human alphaherpesvirus 1; Human alphaherpesvirus 1): 1.2 nM | IC50 (Vaccinia virus): 1.2 nM | IC50 (Human betaherpesvirus 5): 1.2 nM | IC50 (Human alphaherpesvirus 3): 1.2 nM

Nc1nc(NCC(F)(F)F)c2ncn(CCOCP(=O)(O)O)c2n1
IC50 (Vaccinia virus): 42000 nM | IC50 (Cowpox virus): 270000 nM

CN(C)c1nc(N)nc2c1ncn2CCOCP(=O)(O)O
IC50 (Vaccinia virus): 35000 nM | IC50 (Cowpox virus): 53000 nM

CCOC(=O)/C=C/[C@H](C[C@@H]1CCNC1=O)NC(=O)/C=C/c1ccc(C)c(Br)c1
IC50 (Human rhinovirus sp.): 1290 nM

O=c1[nH]cnc2c1ncn2[C@H]1CC[C@@H](CO)O1 [DIDANOSINE]
IC50 [1]: 4000 nM | IC50 (Vaccinia virus): 423000 nM | IC50 (Cowpox virus): 423000 nM

CCOC(=O)/C=C/[C@H](CCC(N)=O)NC(=O)[C@H](Cc1ccc(F)c(F)c1)n1cccc(NC(=O)OCc2ccccc2)c1=O
IC50 (Human rhinovirus sp.): 3 nM

O=c1[nH]c(=O)n([C@@H]2O[C@H](CO)[C@@H](O)[C@@H]2F)cc1I [FIALURIDINE]
IC50 (Cowpox virus): 240 nM

Nc1nc(N)c(-c2ccccc2)c(OCCOCP(=O)(O)O)n1
IC50 [1]: 0.3 nM | IC50 [2]: 0.3 nM | IC50 (Human alphaherpesvirus 2; Human alphaherpesvirus 2): 1.2 nM | IC50 (Human alphaherpesvirus 1; Human alphaherpesvirus 1): 1.2 nM | IC50 (Vaccinia virus): 1.2 nM | IC50 (Human betaherpesvirus 5): 0.15 nM | IC50 (Human alphaherpesvirus 3): 0.15 nM

CCOC(=O)/C=C/[C@H](CCC(N)=O)NC(=O)[C@H](Cc1ccccc1)n1cccc(NC(=O)C(C)(C)C)c1=O
IC50 (Human rhinovirus sp.): 518 nM

CCOC(=O)/C=C/[C@H](CCC(N)=O)NC(=O)[C@H](Cc1ccccc1)n1cccc(NC(C)=O)c1=O
IC50 (Human rhinovirus sp.): 888 nM

C[C@H](Cn1cnc2c(N)ncnc21)OCP(=O)(O)O [TENOFOVIR ANHYDROUS]
IC50 [1]: 7200 nM | IC50 (Vaccinia virus): 300000 nM | IC50 (Cowpox virus): 300000 nM

NC1c2[nH]cnc2N=CN1C[C@@H](CO)OCP(=O)(O)O (some centres not stated)
IC50 (Cowpox virus): 330000 nM

Nc1nc(N)c(Cc2ccccc2)c(OCCOCP(=O)(O)O)n1
IC50 [1]: 0.3 nM | IC50 [2]: 0.3 nM | IC50 (Human alphaherpesvirus 2; Human alphaherpesvirus 2): 0.66 nM | IC50 (Human alphaherpesvirus 1; Human alphaherpesvirus 1): 1.2 nM | IC50 (Vaccinia virus): 1.2 nM | IC50 (Human betaherpesvirus 5): 0.15 nM | IC50 (Human alphaherpesvirus 3): 0.15 nM

Nc1nc(N)n(CCOCP(=O)(O)O)c(=O)c1Cc1ccccc1
IC50 [1]: 0.3 nM | IC50 [2]: 0.3 nM | IC50 (Human alphaherpesvirus 2; Human alphaherpesvirus 2): 1.2 nM | IC50 (Human alphaherpesvirus 1; Human alphaherpesvirus 1): 1.2 nM | IC50 (Vaccinia virus): 1.2 nM | IC50 (Human betaherpesvirus 5): 0.15 nM | IC50 (Human alphaherpesvirus 3): 0.15 nM

C=CCc1c(N)nc(N)n(CCOCP(=O)(O)O)c1=O
IC50 [1]: 0.3 nM | IC50 [2]: 0.3 nM | IC50 (Human alphaherpesvirus 2; Human alphaherpesvirus 2): 0.77 nM | IC50 (Human alphaherpesvirus 1; Human alphaherpesvirus 1): 1.2 nM | IC50 (Vaccinia virus): 1.2 nM | IC50 (Human alphaherpesvirus 3): 0.15 nM

C=CCNc1nc(N)nc2c1ncn2CCOCP(=O)(O)O
IC50 (Vaccinia virus): 25000 nM | IC50 (Cowpox virus): 115000 nM

O=[N+]([O-])CS(=O)(=O)c1ccc(-c2ccccc2)cc1
IC50 (Human papillomavirus): 65000 nM

CC(C)(C)C(=O)OCOP(=O)(COCCn1cnc2c(N)ncnc21)OCOC(=O)C(C)(C)C [ADEFOVIR DIPIVOXIL]
IC50 (Vaccinia virus): 5100 nM | IC50 (Cowpox virus): 13000 nM

O=C(O)CS(=O)(=O)c1ccc(NCCc2ccccc2)cc1
IC50 (Human papillomavirus): 67000 nM

CC(C)OP(=O)(COCCSc1cc(N)nc(N)n1)OC(C)C
IC50 [2]: 0.143 nM | IC50 (Human alphaherpesvirus 2; Human alphaherpesvirus 2): 1.1 nM | IC50 (Human alphaherpesvirus 1; Human alphaherpesvirus 1): 1.1 nM | IC50 (Human alphaherpesvirus 3): 0.137 nM

C=CCc1c(N)nc(N)nc1OCCOCP(=O)(O)O
IC50 [1]: 0.3 nM | IC50 [2]: 0.79 nM | IC50 (Human alphaherpesvirus 2; Human alphaherpesvirus 2): 1.2 nM | IC50 (Human alphaherpesvirus 1; Human alphaherpesvirus 1): 1.2 nM | IC50 (Vaccinia virus): 1.2 nM | IC50 (Human betaherpesvirus 5): 0.15 nM | IC50 (Human alphaherpesvirus 3): 0.15 nM

CC(C)OC(=O)C(C)NP(=O)(CO[C@H](C)Cn1cnc2c(N)ncnc21)Oc1ccccc1 (some centres not stated)
IC50 (Cowpox virus): 98900 nM

O=C(O)CS(=O)(=O)c1ccc(-c2cccc(CC(=O)NCc3ccccc3)c2)cc1
IC50 (Human papillomavirus): 300 nM

O=C(O)CS(=O)(=O)c1cccc(COc2ccccc2)c1
IC50 (Human papillomavirus): 80000 nM

Nc1nc(NC2CC2)c2ncn(CCOCP(=O)(O)O)c2n1
IC50 (Cowpox virus): 28000 nM

CC(C)OC(=O)C(C)NP(=O)(COCCn1cnc2c(NC3CC3)nc(N)nc21)Oc1ccccc1 (configuration not stated)
IC50 (Cowpox virus): 2600 nM

CCOC(=O)C(C)NP1(=O)CO[C@@H](Cn2ccc(N)nc2=O)CO1 (some centres not stated)
IC50 (Vaccinia virus): 15000 nM | IC50 (Cowpox virus): 26000 nM

O=C(O)CSc1ccc(-c2ccccc2)cc1
IC50 (Human papillomavirus): 80000 nM

O=S(=O)(Cc1nnn[nH]1)c1ccc(-c2ccccc2)cc1
IC50 (Human papillomavirus): 63000 nM

C[C@H](NC(=O)c1cccc(-c2ccc(S(=O)(=O)CC(=O)O)cc2)c1)c1ccccc1
IC50 (Human papillomavirus): 1700 nM

O=C(O)CS(=O)(=O)c1ccc2ccccc2c1
IC50 (Human papillomavirus): 40000 nM

O=C(O)CS(=O)(=O)c1ccc(-c2ccc(C(=O)N3CCCCC3)cc2)cc1
IC50 (Human papillomavirus): 3300 nM

O=C(O)CS(=O)(=O)c1ccc(-c2ccc(C(=O)Nc3ccccc3)cc2)cc1
IC50 (Human papillomavirus): 1300 nM

N#CCc1c(N)nc(N)n(CCOCP(=O)(O)O)c1=O
IC50 [1]: 0.3 nM | IC50 [2]: 0.3 nM | IC50 (Human alphaherpesvirus 2; Human alphaherpesvirus 2): 1.2 nM | IC50 (Human alphaherpesvirus 1; Human alphaherpesvirus 1): 1.2 nM | IC50 (Vaccinia virus): 1.2 nM | IC50 (Human betaherpesvirus 5): 0.15 nM | IC50 (Human alphaherpesvirus 3): 0.084 nM

Nc1nc(O)cc(OCCOCP(=O)(O)O)n1
IC50 [2]: 30.2 nM | IC50 (Human alphaherpesvirus 2): 0.033 nM | IC50 (Human alphaherpesvirus 2; Human alphaherpesvirus 2): 0.0362 nM | IC50 (Human alphaherpesvirus 1): 0.025 nM | IC50 (Human alphaherpesvirus 1; Human alphaherpesvirus 1): 0.0362 nM | IC50 (Vaccinia virus): 0.18 nM | IC50 (Human betaherpesvirus 5): 0.19 nM

O=c1[nH]c(=O)n([C@H]2C[C@H](O)[C@@H](CO)O2)cc1I [IDOXURIDINE]
IC50 (Vaccinia virus): 6000 nM | IC50 (Cowpox virus): 2000 nM
